Measured values taken from US7531500B2, “Preventing airway mucus production by administration of EGF-R antagonists” (The Regents of the University of California, priority 1998, dated 2009).

What was measured:
NCI-H292 cells [1] = assay: Immunoassay of MUC5AC protein in NCI-H292 cells (Example 2); type: cell-based, human; settings: for MUC5AC synthesis by supernatant of activated neutrophils, cigarette smoke and H2O2 / MUC5AC protein synthesis by TGFα: DMSO 1%, SOD 300 U/ml; for MUC5AC synthesis by supernatant of activated neutrophils, cigarette smoke and H2O2: DMTU 50 mM; for MUC5AC protein synthesis induced by the supernatant of activated neutrophils: BIBX1522 10 μg/ml, AG1478 10 μM, AG1295 100 μM, A1 100 μM, 30 min pretreatment, antibodies preincubated with supernatant
Protocol: Cell Culture. NCI-H292 cells, a human pulmonary mucoepidermoid carcinoma cell line, were grown in RPMI 1640 medium containing 10% fetal bovine serum, penicillin (100 U/ml), streptomycin (100 μg/ml) and Hepes (25 mM) at 37° C. in a humidified 5% CO2, water-jacketed incubator. Either 6-well culture plates or 8-chamber slides were used to culture the cells. […] The cells were then washed and incubated with fresh medium alone. Experiments were terminated at preselected times (for mRNA, 6 h and 12 h; for protein, 24 h). As controls, cells were incubated with medium alone for same time periods. […] In inhibition studies with blocking antibodies to EGF-R ligands, the supernatants were pretreated with anti-TGFα antibody (Calbiochem) or anti-EGF antibody for 30 min and then added to NCI-H292 cells. The role of oxygen free radicals was examined using scavengers of oxygen free radical DMSO (1%, Sigma), 1,3-dimethyl-2-thiourea (DMTU, 50 mM, Sigma), or superoxide dismutase (SOD, 300 U/ml, Sigma).
Preparation of Cigarette Smoke Solution. Research cigarettes (code2R1, produced for the University of Kentucky Tobacco and Health Research Foundation) were used in the study. Cigarette smoke solution was prepared as previously described (Dusser et al. (1989) J. Clin. Invest. 84:900-906). In brief, cigarette smoke was withdrawn into a polypropylene syringe (35 ml) at a rate of one puff/min (10 times) and bubbled slowly into 20 ml of RPM11640 containing 50 mM Hepes buffer. The smoke solution was then titrated to pH 7,4 and used immediately after preparation.
Immunoassay of MUC5AC Protein. MUC5AC protein was measured as described above. In brief, cell lysates were prepared with PBS at multiple dilutions, and 50 μl of each sample was incubated with bicarbonate-carbonate buffer (50 μl) at 40° C. in a 96-well plate (Maxisorp Nunc, Fisher Scientific, Santa Clara, Calif.), until dry. Plates were washed three times with PBS and blocked with 2% BSA (fraction V, Sigma) for 1 h at room temperature. Plates were again washed three times with PBS and then incubated with 50 μl of mouse monoclonal MUC5AC antibody (1:100) that was diluted with PBS containing 0.05% Tween 20. After 1 h, the wells were washed three times with PBS, and 100 μl horseradish peroxidase-goat anti-mouse IgG conjugate (1:10,000, Sigma) was dispensed into each well. After 1 h, plates were washed three times with PBS. Color reaction was developed with TMB peroxidase solution (Kirkegaard & Perry Laboratories, Gaithersburg, Md.) and stopped with 2N H2SO4. Absorbance was read at 450 nm.

NCI-H292 cells [2] = assay: MUC5AC mRNA and protein in NCI-H292 cells incubated with cigarette smoke solution (Example 7); type: cell-based, human; settings: BIBX1522 10 μg/ml, AG1478 10 μM; for MUC5AC protein synthesis induced by cigarette smoke solution: AG1295 100 μM, A1 100 μM, DMSO 1%, SOD 300 U/ml
Protocol: NCI-H292 cells, a human pulmonary mucoepidermoid carcinoma cell line, were grown in RPMI 1640 medium containing 10% fetal bovine serum, penicillin (100 U/ml), streptomycin (100 μg/ml) and Hepes (25 mM) at 37° C. in a humidified 5% CO2 water-jacketed incubator. Either 6-well culture plates or 8-chamber slides were used to culture the cells. When confluent, cells were incubated for 1 hour with cigarette smoke solution. The cells were then washed and incubated with fresh medium alone. Experiments were terminated at preselected times (for mRNA, 6 hours and 12 hours; for protein, 24 hours). As controls, cells were incubated with medium alone for same time periods. […] The effects of a selective inhibitor of platelet-derived growth factor receptor tyrosine kinase (tyrphostin AG1295, 100 μM, Calbiochem), and a negative control for tyrphostins (tyrphostin A1, 100 μM, Calbiochem) were also examined. The role of reactive oxygen species was examined using a scavenger of oxygen free radicals DMSO (1%, Sigma), or superoxide dismutase (SOD, 300 U/ml, Sigma).
In situ hybridization was performed using a human EGFR probe, which contains a 350-bp cDNA fragment of the human EGFR gene (pTRI-EGFR-human probe template, Ambion, Austin, Tex.) and a human MUC5AC probe, which contains a 298-bp cDNA fragment of the human MUC5AC gene, The 350-bp cDNA human EGFR was subcloned into pBluescript II SK-vector at Kpn I and EcoR I sites. This pBluescript was used to generate human EGFR antisense and sense probes. Hybridization was performed as described previously. Lou et al. (1998) Am. J. Respir. Crit. Care Med. 157:1927-1934. In brief, the cells grown on the 8-chamber slides were fixed in 4% paraformaldehyde, rehydrated in 0.5×SSC, and then acetylated in triethanolamine and acetic anhydride. Hybridization was carried out with 2500-4000 cpm/μl of antisense or sense probe in 50% deionized formamide, 0.3 M NaCl, 20 mM Tris, 5 mM EDTA, 1× Denhardt's solution, 20 mM dithiothreitol, 10% dextran sulfate, 0.5 mg/ml yeast tRNA, and 0.5 mg/ml sonicated salmon sperm DNA at 58° overnight. Posthybridization treatment consisted of washes with 2×SSC, 1 mM EDTA, 10 mM β-mercaptoethanol at room temperature, incubation with RNase solution (20 μg/ml) for 30 min at room temperature, and further washes in 0.1×SSC, 1 mM EDTA, 10 mM β-mercaptoethanol at 55° C. for 2 hours and then in 0.5×SSC at room temperature for 20 minutes. Specimens were dehydrated, air-dried, and covered with Kodak NBT nuclear track emulsion (Eastman Kodak, Rochester, N.Y.) for autoradiography. After exposure for 7 to 21 days at 4° C., the slides were developed, fixed, and counterstained with hematoxylin.
MUC5AC protein was measured as described previously. Takeyama et al. (1999) Proc. Natl. Acad. Sci. USA 96:3081-3086. In brief, cell lysates were prepared with PBS at multiple dilutions, and 50 μl of each sample was incubated with bicarbonate-carbonate buffer (50 μl) at 40° C. in a 96-well plate (Maxisorp Nunc, Fisher Scientific, Santa Clara, Calif.), until dry. Plates were washed three times with PBS and blocked with 2% bovine serum albumin, fraction V (Sigma) for 1 hour at room temperature. Plates were again washed three times with PBS and then incubated with 50 μl of MUC5AC mAb (1:1 00) that was diluted with PBS containing 0.05% Tween 20. After 1 hour, the wells were washed three times with PBS, and 100 μl horseradish peroxidase-goat anti-mouse IgG conjugate (1:10,000) was dispensed into each well. After 1 hour, plates were washed three times with PBS. Color reaction was developed with 3,3′,5,5′-tetramethylbenzidine (TMB) peroxidase solution (Kirkegaard & Perry Laboratories, Gaithersburg, Md.) and stopped with 2N H2S04. Absorbance was read at 450 nm.

EGFR = EGFR (Homo sapiens, UniProt P00533); assay: Immunoprecipitation of EGF-R and immunoblotting for tyrosine phosphorylation in NCI-H292 cells; type: cell-based; set-up: These cells express EGF-R constitutively; endogenous in cells; host or cells: NCI-H292 (human pulmonary mucoepidermoid carcinoma)
EGFR, sequence (P00533 25-1210): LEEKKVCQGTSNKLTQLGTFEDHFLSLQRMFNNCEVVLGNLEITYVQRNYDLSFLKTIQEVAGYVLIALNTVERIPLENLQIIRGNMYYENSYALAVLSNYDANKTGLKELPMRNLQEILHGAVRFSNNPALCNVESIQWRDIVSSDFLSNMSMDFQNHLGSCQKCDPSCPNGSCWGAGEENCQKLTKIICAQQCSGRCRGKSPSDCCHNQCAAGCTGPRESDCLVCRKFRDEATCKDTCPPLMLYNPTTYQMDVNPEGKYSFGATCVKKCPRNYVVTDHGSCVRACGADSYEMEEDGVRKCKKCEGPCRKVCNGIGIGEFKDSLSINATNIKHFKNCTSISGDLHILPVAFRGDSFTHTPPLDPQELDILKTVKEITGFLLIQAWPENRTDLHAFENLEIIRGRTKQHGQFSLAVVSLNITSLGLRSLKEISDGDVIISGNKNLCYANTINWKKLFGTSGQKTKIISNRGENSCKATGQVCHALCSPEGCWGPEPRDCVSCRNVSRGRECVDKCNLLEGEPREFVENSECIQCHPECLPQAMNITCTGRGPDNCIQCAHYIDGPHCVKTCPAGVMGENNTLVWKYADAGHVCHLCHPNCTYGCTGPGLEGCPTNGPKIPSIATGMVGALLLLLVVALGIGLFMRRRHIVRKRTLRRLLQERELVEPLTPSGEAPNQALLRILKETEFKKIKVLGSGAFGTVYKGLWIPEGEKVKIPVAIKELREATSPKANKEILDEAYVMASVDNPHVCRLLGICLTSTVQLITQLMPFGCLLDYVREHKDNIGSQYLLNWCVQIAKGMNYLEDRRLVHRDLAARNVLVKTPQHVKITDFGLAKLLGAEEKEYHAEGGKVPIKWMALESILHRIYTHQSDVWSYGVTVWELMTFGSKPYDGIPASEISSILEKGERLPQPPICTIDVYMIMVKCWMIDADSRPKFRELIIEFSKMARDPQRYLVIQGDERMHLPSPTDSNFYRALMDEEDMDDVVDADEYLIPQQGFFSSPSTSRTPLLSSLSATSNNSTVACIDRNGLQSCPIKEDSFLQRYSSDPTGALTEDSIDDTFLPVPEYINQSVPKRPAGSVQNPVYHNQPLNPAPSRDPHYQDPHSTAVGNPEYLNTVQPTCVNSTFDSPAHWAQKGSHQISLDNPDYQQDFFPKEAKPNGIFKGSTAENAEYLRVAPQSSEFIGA
Protocol: Immunoprecipitation for EGF-R Protein and Immunoblotting for Tyrosine Phosphorylation. Cells were serum-starved for 24 h and then stimulated with TGFα, H2O2, or the supernatant of activated neutrophils for 15 min. After stimulation, cells were lysed and incubated for 30 min in an orbital shaker at 4° C. To remove insoluble material, cell lysates were centrifuged at 14,000 rpm for 5 min at 4° C. Aliquots of supernatants containing equal amounts of protein were immunoprecipitated with anti-EGF receptor antibody (polyclonal, Ab4, Calbiochem) and 20 μl of protein A-agarose (Santa Cruz) for 2 h at 4° C. Precipitates were washed three times with 0.5 ml of lysis buffer, suspended in SDS sample buffer, and boiled for 5 min. Proteins were separated by SDS-PAGE in 8.0% acrylamide gel. The resulting gel was equilibrated in the transfer buffer: 25 mM Tris-HCl, 192 mM glycine, 20% (vol/vol) methanol, pH 8.3. The proteins were then transferred electrophoretically to nitrocellulose membranes (0.22 μm), blocked with 5% fat-free skimmed milk in PBS containing 0.05% Tween 20 overnight and then incubated with monoclonal anti-phosphotyrosine antibody (1:100,Santa Cruz) for 1 h. Bound antibody was visualized according to a standard protocol for the avidin-biotin-alkaline phosphatase complex method (ABC kit, Vector Laboratories).

TGFα-induced EGF-R tyrosine phosphorylation (EGFR) | supernatant-, cigarette smoke-, and H2O2-induced EGF-R tyrosine phosphorylation (EGFR) | Molecule | MUC5AC synthesis induced by cigarette smoke (NCI-H292 cells [1]) | MUC5AC synthesis by supernatant of activated neutrophils, cigarette smoke and H2O2 (NCI-H292 cells [1]) | MUC5AC protein synthesis by TGFα (NCI-H292 cells [1]) | MUC5AC protein synthesis induced by cigarette smoke solution (NCI-H292 cells [2]) | MUC5AC protein synthesis induced by the supernatant of activated neutrophils (NCI-H292 cells [1]) | increase in MUC5AC protein synthesis induced by all stimuli (cigarette smoke, H2O2, TGFα) (NCI-H292 cells [1]; pretreatment 10 μM) | MUC5AC mRNA expression induced by cigarette smoke solution (NCI-H292 cells [2])
 |  | superoxide dismutase [SOD] | partially inhibited | significantly inhibited | unaffected | inhibited significantly |  |  | 
had no effect | inhibited | C[S+](C)[O-] [DMSO] | partially inhibited | significantly inhibited | unaffected | inhibited significantly |  |  | 
 |  | COc1cc2ncnc(Nc3cccc(Cl)c3)c2cc1OC [AG1478] |  |  |  | prevented | prevented | prevented | prevented
 |  | Cc1cc2ncc(-c3ccccc3)nc2cc1C [AG1295] |  |  |  | without effect | without effect |  | 
